Data from publication PMC11233931, “Remodeling tumor‐associated macrophage for anti‐cancer effects by rational design of irreversible inhibition of mitogen‐activated protein kinase‐activated protein kinase 2” (MedComm, 2024).

Experiments:
Experiment in all cases: Eurofins kinase selectivity profile against 380 other human recombinant kinases (Table S2)
Format in all cases: biochemical
[1] = target: T1, 380 human recombinant protein kinases (Homo sapiens, UniProt O14757); details: CHK1(h), read-out: Inhibition rate
T1 construct: purchased Eurofins (Celle Lévescault)
T1 sequence (O14757 1-476): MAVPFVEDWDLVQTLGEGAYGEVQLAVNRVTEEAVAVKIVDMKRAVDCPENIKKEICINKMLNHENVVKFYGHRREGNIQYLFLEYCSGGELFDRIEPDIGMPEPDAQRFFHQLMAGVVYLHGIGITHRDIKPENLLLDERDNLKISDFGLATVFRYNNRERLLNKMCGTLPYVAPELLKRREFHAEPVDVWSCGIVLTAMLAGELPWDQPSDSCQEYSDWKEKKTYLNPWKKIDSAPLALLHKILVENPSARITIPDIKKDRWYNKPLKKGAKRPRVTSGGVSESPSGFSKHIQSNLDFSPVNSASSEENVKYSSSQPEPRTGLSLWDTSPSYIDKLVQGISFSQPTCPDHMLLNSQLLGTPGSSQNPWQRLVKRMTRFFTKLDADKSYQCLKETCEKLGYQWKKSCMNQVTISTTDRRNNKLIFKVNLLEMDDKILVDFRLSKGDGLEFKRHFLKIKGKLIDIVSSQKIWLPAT
Method in brief: (§1)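 Off-target profiling: one compound assayed by a commercial provider over 380 recombinant human protein kinases at various concentrations.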

[2] = target: T2, 380 human recombinant protein kinases (Homo sapiens, UniProt P42684); details: Arg(h), read-out: Inhibition rate
T2 construct: purchased Eurofins (Celle Lévescault)
Method in brief: as §1

[3] = target: T3, 380 human recombinant protein kinases (Homo sapiens, UniProt O95819); details: MAP4K4(h), read-out: Inhibition rate
T3 construct: purchased Eurofins (Celle Lévescault)
Method in brief: as §1

[4] = target: T4, 380 human recombinant protein kinases (Homo sapiens, UniProt Q9UQM7); details: CaMKIIα(h), read-out: Inhibition rate
T4 construct: purchased Eurofins (Celle Lévescault)
Method in brief: as §1

[5] = target: T5, 380 human recombinant protein kinases (Homo sapiens, UniProt P24723); details: PKCη(h), read-out: Inhibition rate
T5 construct: purchased Eurofins (Celle Lévescault)
Method in brief: as §1

[6] = target: T6, 380 human recombinant protein kinases (Homo sapiens, UniProt Q9UPE1); details: MSSK1(h), read-out: Inhibition rate
T6 construct: purchased Eurofins (Celle Lévescault)
Method in brief: as §1

[7] = target: T7, 380 human recombinant protein kinases (Homo sapiens, UniProt P11802); details: CDK4/cyclinD3(h), read-out: Inhibition rate
T7 construct: purchased Eurofins (Celle Lévescault)
Method in brief: as §1

[8] = target: T8, 380 human recombinant protein kinases (Homo sapiens, UniProt O75676); details: MSK2(h), read-out: Inhibition rate
T8 construct: purchased Eurofins (Celle Lévescault)
Method in brief: as §1

[9] = target: T9, 380 human recombinant protein kinases (Homo sapiens, UniProt P29317); details: EphA2(h), read-out: Inhibition rate
T9 construct: purchased Eurofins (Celle Lévescault)
Method in brief: as §1

[10] = target: T10, 380 human recombinant protein kinases (Homo sapiens, UniProt P31749); details: PKBα(h), read-out: Inhibition rate
T10 construct: purchased Eurofins (Celle Lévescault)
Method in brief: as §1

[11] = target: T11, 380 human recombinant protein kinases (Homo sapiens, UniProt Q15303); details: ErbB4(h), read-out: Inhibition rate
T11 construct: purchased Eurofins (Celle Lévescault)
Method in brief: as §1

[12] = target: T12, 380 human recombinant protein kinases (Homo sapiens, UniProt Q8TDC3); details: BrSK1(h), read-out: Inhibition rate
T12 construct: purchased Eurofins (Celle Lévescault)
T12 sequence (Q8TDC3 1-778): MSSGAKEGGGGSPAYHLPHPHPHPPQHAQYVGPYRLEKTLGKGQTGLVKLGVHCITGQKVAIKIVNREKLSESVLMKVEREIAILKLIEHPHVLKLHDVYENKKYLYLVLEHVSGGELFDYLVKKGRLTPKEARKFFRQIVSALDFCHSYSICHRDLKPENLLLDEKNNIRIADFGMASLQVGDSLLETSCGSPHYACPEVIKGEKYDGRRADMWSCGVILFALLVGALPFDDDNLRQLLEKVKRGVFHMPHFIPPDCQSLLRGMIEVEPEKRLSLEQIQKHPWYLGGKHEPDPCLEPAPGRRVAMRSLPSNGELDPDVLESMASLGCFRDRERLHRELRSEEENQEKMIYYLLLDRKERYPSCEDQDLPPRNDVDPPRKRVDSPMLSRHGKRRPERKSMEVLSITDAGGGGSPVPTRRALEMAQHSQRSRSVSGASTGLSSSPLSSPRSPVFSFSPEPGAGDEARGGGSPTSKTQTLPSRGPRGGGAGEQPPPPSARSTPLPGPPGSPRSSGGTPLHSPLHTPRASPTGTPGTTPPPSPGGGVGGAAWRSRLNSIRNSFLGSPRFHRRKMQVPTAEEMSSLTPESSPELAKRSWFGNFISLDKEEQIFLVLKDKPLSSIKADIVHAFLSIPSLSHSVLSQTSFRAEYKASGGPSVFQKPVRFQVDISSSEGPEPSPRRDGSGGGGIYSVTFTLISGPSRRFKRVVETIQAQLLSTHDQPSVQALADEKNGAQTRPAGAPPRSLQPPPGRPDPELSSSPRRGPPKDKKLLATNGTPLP
Method in brief: as §1

T4 sequence (Q9UQM7 whole entry): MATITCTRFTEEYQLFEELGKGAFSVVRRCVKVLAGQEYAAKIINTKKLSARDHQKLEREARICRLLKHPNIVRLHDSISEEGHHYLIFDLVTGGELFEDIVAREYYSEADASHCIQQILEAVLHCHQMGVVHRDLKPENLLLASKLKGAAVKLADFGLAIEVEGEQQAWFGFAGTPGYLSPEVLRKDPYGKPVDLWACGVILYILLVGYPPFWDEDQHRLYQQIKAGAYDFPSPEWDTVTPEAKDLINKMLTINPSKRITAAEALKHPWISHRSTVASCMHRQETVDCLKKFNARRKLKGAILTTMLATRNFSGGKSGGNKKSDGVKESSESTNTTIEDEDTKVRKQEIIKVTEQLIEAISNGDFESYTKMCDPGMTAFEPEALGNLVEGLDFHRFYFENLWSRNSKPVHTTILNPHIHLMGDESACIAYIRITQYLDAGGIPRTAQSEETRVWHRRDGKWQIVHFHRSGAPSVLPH
T2 sequence (P42684 whole entry): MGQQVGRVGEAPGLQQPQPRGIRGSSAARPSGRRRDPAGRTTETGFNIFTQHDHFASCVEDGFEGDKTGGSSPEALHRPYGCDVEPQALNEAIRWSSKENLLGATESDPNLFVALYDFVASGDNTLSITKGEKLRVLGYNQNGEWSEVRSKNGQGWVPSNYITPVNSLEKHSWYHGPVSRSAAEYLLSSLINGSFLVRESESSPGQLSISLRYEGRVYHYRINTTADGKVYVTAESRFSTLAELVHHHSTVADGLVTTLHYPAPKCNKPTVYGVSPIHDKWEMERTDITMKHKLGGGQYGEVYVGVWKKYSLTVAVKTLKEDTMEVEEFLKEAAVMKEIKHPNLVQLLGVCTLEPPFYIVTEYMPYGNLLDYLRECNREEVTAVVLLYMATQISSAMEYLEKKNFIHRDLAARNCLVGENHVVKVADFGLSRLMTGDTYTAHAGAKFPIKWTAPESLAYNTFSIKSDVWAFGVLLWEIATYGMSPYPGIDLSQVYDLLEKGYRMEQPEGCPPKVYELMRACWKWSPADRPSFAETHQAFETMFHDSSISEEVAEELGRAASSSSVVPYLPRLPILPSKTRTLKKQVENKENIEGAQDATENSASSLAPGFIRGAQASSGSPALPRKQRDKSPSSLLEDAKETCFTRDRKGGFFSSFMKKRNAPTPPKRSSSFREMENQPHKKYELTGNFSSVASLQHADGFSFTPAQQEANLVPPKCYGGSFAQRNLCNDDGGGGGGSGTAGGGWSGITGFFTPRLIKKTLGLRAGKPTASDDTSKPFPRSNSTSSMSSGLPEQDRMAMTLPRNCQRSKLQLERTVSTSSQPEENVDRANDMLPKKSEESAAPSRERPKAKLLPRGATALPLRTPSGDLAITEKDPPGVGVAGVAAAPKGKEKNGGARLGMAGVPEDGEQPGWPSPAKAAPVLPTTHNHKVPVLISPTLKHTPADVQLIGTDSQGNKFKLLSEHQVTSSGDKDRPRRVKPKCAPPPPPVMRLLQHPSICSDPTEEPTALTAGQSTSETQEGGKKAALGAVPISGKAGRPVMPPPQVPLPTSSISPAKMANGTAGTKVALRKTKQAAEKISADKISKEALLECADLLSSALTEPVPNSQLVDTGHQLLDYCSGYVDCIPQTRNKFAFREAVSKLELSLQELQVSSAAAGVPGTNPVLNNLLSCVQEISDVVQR
T8 sequence (O75676 whole entry): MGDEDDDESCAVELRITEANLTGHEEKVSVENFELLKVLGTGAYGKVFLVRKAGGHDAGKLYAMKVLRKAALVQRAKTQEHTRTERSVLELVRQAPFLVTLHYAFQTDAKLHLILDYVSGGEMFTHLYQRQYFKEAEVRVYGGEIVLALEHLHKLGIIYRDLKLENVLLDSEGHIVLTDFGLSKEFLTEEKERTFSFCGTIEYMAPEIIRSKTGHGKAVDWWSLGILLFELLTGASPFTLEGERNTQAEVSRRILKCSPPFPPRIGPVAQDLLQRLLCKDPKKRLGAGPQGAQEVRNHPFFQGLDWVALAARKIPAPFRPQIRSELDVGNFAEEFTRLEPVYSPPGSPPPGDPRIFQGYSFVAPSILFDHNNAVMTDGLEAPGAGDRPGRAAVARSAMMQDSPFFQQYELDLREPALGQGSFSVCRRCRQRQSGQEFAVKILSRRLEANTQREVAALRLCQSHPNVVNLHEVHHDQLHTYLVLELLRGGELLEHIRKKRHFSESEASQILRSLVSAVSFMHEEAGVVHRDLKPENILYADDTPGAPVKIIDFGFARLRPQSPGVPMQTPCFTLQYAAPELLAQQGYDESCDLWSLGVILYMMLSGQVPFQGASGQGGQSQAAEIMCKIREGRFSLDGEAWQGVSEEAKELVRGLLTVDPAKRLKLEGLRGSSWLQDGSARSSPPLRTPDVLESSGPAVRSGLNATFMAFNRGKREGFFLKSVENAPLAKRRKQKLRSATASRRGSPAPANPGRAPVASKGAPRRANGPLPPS
T10 sequence (P31749 whole entry): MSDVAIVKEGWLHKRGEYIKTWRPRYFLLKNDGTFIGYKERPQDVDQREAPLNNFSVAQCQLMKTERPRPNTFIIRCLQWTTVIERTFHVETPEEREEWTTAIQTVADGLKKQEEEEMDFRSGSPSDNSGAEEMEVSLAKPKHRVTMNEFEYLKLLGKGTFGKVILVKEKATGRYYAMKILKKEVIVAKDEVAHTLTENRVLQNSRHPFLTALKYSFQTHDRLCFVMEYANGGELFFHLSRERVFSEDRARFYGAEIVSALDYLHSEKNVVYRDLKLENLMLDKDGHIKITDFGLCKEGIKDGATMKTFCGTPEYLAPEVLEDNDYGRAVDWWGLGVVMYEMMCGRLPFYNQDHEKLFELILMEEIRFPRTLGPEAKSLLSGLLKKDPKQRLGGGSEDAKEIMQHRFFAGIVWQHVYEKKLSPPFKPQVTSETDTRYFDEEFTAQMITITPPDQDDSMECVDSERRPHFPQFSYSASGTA
T3 sequence (O95819 whole entry): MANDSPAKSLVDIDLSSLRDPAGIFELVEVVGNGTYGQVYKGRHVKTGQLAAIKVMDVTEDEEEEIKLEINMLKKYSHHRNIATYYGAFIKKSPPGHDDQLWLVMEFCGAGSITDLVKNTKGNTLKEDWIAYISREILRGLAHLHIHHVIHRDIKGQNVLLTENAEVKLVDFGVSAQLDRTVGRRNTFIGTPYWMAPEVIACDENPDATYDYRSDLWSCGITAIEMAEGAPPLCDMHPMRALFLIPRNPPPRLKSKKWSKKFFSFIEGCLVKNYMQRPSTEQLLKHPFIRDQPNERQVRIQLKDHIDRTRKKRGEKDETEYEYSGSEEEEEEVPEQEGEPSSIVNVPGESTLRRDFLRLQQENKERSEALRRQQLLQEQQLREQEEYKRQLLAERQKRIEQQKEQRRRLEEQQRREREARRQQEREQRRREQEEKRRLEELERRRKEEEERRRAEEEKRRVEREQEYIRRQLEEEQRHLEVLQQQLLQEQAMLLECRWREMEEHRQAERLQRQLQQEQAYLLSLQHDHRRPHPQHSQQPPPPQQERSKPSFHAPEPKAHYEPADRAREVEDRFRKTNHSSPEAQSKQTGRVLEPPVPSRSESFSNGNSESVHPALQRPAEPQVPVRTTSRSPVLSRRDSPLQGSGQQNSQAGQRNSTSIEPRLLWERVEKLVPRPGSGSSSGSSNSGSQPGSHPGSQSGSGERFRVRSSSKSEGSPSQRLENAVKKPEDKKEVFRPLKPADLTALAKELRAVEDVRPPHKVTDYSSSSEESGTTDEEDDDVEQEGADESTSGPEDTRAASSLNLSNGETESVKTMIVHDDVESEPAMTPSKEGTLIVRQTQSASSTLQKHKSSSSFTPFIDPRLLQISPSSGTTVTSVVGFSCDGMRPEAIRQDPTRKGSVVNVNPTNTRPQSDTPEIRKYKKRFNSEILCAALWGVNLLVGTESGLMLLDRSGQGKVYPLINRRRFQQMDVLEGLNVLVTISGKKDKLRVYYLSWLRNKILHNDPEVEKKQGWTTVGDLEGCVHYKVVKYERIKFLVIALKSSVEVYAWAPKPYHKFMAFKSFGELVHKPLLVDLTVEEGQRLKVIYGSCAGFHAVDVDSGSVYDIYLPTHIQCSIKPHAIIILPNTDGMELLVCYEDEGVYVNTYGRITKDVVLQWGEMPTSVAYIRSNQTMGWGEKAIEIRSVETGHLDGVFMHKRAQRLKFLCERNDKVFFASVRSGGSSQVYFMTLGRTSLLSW
T6 sequence (Q9UPE1 whole entry): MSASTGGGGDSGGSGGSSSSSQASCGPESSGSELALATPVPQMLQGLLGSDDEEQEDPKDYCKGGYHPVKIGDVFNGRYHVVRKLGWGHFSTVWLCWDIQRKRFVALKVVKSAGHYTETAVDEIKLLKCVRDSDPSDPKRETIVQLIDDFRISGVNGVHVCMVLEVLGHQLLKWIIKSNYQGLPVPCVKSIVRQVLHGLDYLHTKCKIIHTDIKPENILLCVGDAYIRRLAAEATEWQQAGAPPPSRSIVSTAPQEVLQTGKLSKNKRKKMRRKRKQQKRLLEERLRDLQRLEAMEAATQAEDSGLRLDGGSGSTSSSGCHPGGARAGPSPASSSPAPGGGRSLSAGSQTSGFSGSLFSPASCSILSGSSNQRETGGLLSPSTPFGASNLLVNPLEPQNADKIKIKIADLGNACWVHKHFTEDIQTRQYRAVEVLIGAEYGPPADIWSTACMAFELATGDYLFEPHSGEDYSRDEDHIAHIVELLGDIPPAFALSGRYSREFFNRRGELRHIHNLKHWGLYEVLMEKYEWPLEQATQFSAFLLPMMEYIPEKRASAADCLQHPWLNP
T7 sequence (P11802 whole entry): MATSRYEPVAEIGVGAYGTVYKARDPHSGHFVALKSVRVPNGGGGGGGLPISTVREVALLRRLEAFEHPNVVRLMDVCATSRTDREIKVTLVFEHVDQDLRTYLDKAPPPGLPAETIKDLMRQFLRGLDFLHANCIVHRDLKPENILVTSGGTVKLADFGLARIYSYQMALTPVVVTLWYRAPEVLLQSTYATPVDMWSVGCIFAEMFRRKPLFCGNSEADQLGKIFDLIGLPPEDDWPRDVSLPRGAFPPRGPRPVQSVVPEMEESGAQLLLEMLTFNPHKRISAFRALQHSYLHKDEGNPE

Molecule C=CC(=O)Nc1cc(-c2cc(-c3cc4c([nH]3)CCNC4=O)ccn2)ccc1OC(F)(F)F [compound 11] has an inhibition at 0.01 µM ([1]; 10 nM) of 10%, an inhibition at 0.1 µM ([1]; 100 nM) of 6% and an inhibition at 1 µM ([1]; 1000 nM) of 6%. For the same molecule, the inhibition at 0.01 µM ([2]; 10 nM) was 1%, the inhibition at 0.1 µM ([2]; 100 nM) was 2% and the inhibition at 1 µM ([2]; 1000 nM) was 6%. The inhibition at 0.01 µM ([3]; 10 nM) was -11%, the inhibition at 0.1 µM ([3]; 100 nM) was -1% and the inhibition at 1 µM ([3]; 1000 nM) was 33%. It also gave an inhibition at 0.01 µM ([4]; 10 nM) of -3%, an inhibition at 0.1 µM ([4]; 100 nM) of -4% and an inhibition at 1 µM ([4]; 1000 nM) of -2%. The inhibition at 0.01 µM ([5]; 10 nM) was 1%, the inhibition at 0.1 µM ([5]; 100 nM) was 10% and the inhibition at 1 µM ([5]; 1000 nM) was 9%. The inhibition at 0.01 µM ([6]; 10 nM) was -7%, the inhibition at 0.1 µM ([6]; 100 nM) was -4% and the inhibition at 1 µM ([6]; 1000 nM) was 0%. For the same molecule, the inhibition at 0.01 µM ([7]; 10 nM) was 3%, the inhibition at 0.1 µM ([7]; 100 nM) was 0% and the inhibition at 1 µM ([7]; 1000 nM) was 2%. It also gave an inhibition at 0.01 µM ([8]; 10 nM) of -8%, an inhibition at 0.1 µM ([8]; 100 nM) of -5% and an inhibition at 1 µM ([8]; 1000 nM) of -13%. For the same molecule, the inhibition at 0.01 µM ([9]; 10 nM) was 0%, the inhibition at 0.1 µM ([9]; 100 nM) was 3% and the inhibition at 1 µM ([9]; 1000 nM) was -2%. For the same molecule, the inhibition at 0.01 µM ([10]; 10 nM) was 2%, the inhibition at 0.1 µM ([10]; 100 nM) was 4% and the inhibition at 1 µM ([10]; 1000 nM) was 14%. For the same molecule, the inhibition at 0.01 µM ([11]; 10 nM) was -15%, the inhibition at 0.1 µM ([11]; 100 nM) was -3% and the inhibition at 1 µM ([11]; 1000 nM) was 6%. The inhibition at 0.01 µM ([12]; 10 nM) was -7%, the inhibition at 0.1 µM ([12]; 100 nM) was -3% and the inhibition at 1 µM ([12]; 1000 nM) was 17%.
